*1 amine or outer side, *2 acyl side, *3 side chain or, on linkers, in order; H or OH if unused. Where a SMILES comes first, the peptide text is derived from it. Bridges are numbered along the chain shown (N, C = ends). [ ]: non-standard residue; d: D form. The star is where a group is joined. ξ: configuration not given here. Thr(3ξ) = CC(O)[C@H](N)C(=O)O; NH(2-ClPh) = Clc1ccccc1N*; X1 = CC[C@H](C)CCCCC(=O)*; dDab = NCC[C@@H](N)C(=O)O; Dab = NCC[C@H](N)C(=O)O; CO = O=C([*:1])[*:2]; ξDab = NCCC(N)C(=O)O
What was measured:
E. coli 1527 = assay: MIC against the primary screening panel (broth microdilution); assay type: cell-based, Escherichia coli; parameters: key: A: a MIC value measurement that is the same as that observed for polymyxin B; a MIC value measured that is lower than the comparable value observed for polymxin B; a MIC value measured that is higher than the comparable value observed for polymyxin B; conditions: relative to polymyxin B
Protocol: (§1) Antibacterial potency can be assessed by broth microdilution according to CLSI guidelines, plates can be incubated at 37° C., and aeration (rotation at 200 rpm) can be employed. In some assays, surfactant (Survanta, Abbott Laboratories) can be added to give a final concentration of 1, 10 and 40% in caMHB. Native polymyxin A, polymyxin B and the comparator compound of Formula II (polymyxin B decapeptide with an o-chlorophenyl urea tail) were included for comparison.

K. pneumoniae 933 = assay: as above; assay type: cell-based, Klebsiella pneumoniae; parameters: key: A: a MIC value measurement that is the same as that observed for polymyxin B; a MIC value measured that is lower than the comparable value observed for polymxin B; a MIC value measured that is higher than the comparable value observed for polymyxin B; conditions: relative to polymyxin B
Protocol: as §1

P. aeruginosa 44 [1] = assay: as above; assay type: cell-based, Pseudomonas aeruginosa; parameters: key: A: a MIC value measurement that is the same as that observed for polymyxin B; a MIC value measured that is lower than the comparable value observed for polymxin B; a MIC value measured that is higher than the comparable value observed for polymyxin B; conditions: relative to polymyxin B
Protocol: as §1

A. baumannii 1570 = assay: as above; assay type: cell-based, Acinetobacter baumannii; parameters: key: A: a MIC value measurement that is the same as that observed for polymyxin B; a MIC value measured that is lower than the comparable value observed for polymxin B; a MIC value measured that is higher than the comparable value observed for polymyxin B; conditions: relative to polymyxin B
Protocol: as §1

E. coli [2] = assay: MIC50/90 against small panels (n = 35); assay type: cell-based, Escherichia coli; parameters: key: A: a MIC value measurement that is the same as that observed for polymyxin B; a MIC value measured that is lower than the comparable value observed for polymxin B; a MIC value measured that is higher than the comparable value observed for polymyxin B; conditions: small panel n = 35, relative to polymyxin B
Protocol: as §1

K. pneumoniae = assay: MIC50/90 against small panels (n = 35); assay type: cell-based, Klebsiella pneumoniae; parameters: key: A: a MIC value measurement that is the same as that observed for polymyxin B; a MIC value measured that is lower than the comparable value observed for polymxin B; a MIC value measured that is higher than the comparable value observed for polymyxin B; conditions: small panel n = 35, relative to polymyxin B
Protocol: as §1

P. aeruginosa = assay: MIC50/90 against small panels (n = 35); assay type: cell-based, Pseudomonas aeruginosa; parameters: key: A: a MIC value measurement that is the same as that observed for polymyxin B; a MIC value measured that is lower than the comparable value observed for polymxin B; a MIC value measured that is higher than the comparable value observed for polymyxin B; conditions: small panel n = 35, relative to polymyxin B
Protocol: as §1

A. baumannii = assay: MIC50/90 against small panels (n = 35); assay type: cell-based, Acinetobacter baumannii; parameters: key: A: a MIC value measurement that is the same as that observed for polymyxin B; a MIC value measured that is lower than the comparable value observed for polymxin B; a MIC value measured that is higher than the comparable value observed for polymyxin B; conditions: small panel n = 35, relative to polymyxin B
Protocol: as §1

P. aeruginosa #44 = assay: MICs for P. aeruginosa #44 in the presence of surfactant; assay type: cell-based, Pseudomonas aeruginosa; parameters: key: A: a MIC value measurement that is the same as that observed for polymyxin B; a MIC value measured that is lower than the comparable value observed for polymxin B; a MIC value measured that is higher than the comparable value observed for polymyxin B; conditions: relative to polymyxin B
Protocol: as §1

P. aeru = assay: MIC50 and MIC90, CLSI broth microdilution, panel of Gram negative strains; assay type: cell-based, Pseudomonas aeruginosa; parameters: key: A: a measured MIC value equal to that of polymyxin B; a measured MIC value less than the corresponding MIC value measured for polymyxin B; a measured MIC value greater than the corresponding MIC value measured for polymyxin B; conditions: relative to polymyxin B, some strains multi-drug resistant
Protocol: (§2) MIC testing can be performed according to Clinical and Laboratory Standards Institute (CLSI) M7-A7 (2006) broth microdilution methods. Unless otherwise indicated, MIC values are provided in units of micrograms per milliliter.
(§3) One day prior to testing, individual colonies were isolated by streaking onto rich, non-selective Tryptic Soy agar with 5% lysed sheeps blood (TSAB) with incubation at 35-37° C. for 18-24 hours.
(§4) Cultures were prepared by touching 3-5 colonies into 3 mL of cation-adjusted Mueller Hinton Broth (caMHB) in a 14-mL tube (caMHB was prepared and sterilized according to manufacturer's specifications).
(§5) OD600 of growing cultures was measured and adjusted to approximately 10^5 colony forming units per mL (CFU/mL) in caMHB for MIC inoculation (approximately OD600 0.001).
(§6) Diluted cultures were used to inoculate 50 μL per well in broth microdilution assays (final volume 100 μl per well; compounds were prepared in two-fold dilutions).
(§7) Plates were incubated 16-20 hours at 37° C., with shaking at 200 rpm.
(§8) OD600 was determined for all wells. Growth was defined as OD600>0.1. MICs were defined as the lowest concentration producing no visible turbidity (OD600<0.1).

E. coli [3] = assay: as above; assay type: cell-based, Escherichia coli; parameters: key: A: a measured MIC value equal to that of polymyxin B; a measured MIC value less than the corresponding MIC value measured for polymyxin B; a measured MIC value greater than the corresponding MIC value measured for polymyxin B; conditions: relative to polymyxin B; some strains multi-drug resistant
Protocol: as §2, §3, §4, §5, §6, §7, §8

K. pneu = assay: as above; assay type: cell-based, Klebsiella pneumoniae; parameters: key: A: a measured MIC value equal to that of polymyxin B; a measured MIC value less than the corresponding MIC value measured for polymyxin B; a measured MIC value greater than the corresponding MIC value measured for polymyxin B; conditions: relative to polymyxin B; some strains multi-drug resistant
Protocol: as §2, §3, §4, §5, §6, §7, §8

A. baum = assay: as above; assay type: cell-based, Acinetobacter baumannii; parameters: key: A: a measured MIC value equal to that of polymyxin B; a measured MIC value less than the corresponding MIC value measured for polymyxin B; a measured MIC value greater than the corresponding MIC value measured for polymyxin B; conditions: relative to polymyxin B; some strains multi-drug resistant
Protocol: as §2, §3, §4, §5, §6, §7, §8

P. aeruginosa 44 [4] = assay: Neutropenic mouse lung infection model; assay type: in vivo; conditions: for Lungs cleared within one log10 of limit of detection: 8 through 20 mg/kg dose levels
Protocol: Compound of Formula (Ia) was tested in a murine thigh model. For the thigh model, female CD-1 mice were rendered neutropenic by IP injection on days −4 and −1 with 150 and 100 mg/kg cyclophosphamide, respectively. On day 0 mice were infected with 1×10^7 colony-forming units (cfu) of A. baumannii 1570 in one thigh muscle, and then administered compound SC in a dose ranging from 2 to 12 mg/kg at 1 and 6 hours post-infection.
The mouse lung model was run in the same manner as the thigh infection model, except that mice were infected IN with 1×10^7 cfu of P. aeruginosa 44 on day 0. Doses administered in the lung study ranged from 8 to 20 mg/kg. The ED−3log10 was based on cfu determination from the lung tissue 24 hours post-infection.

[5] = Acute toxicity testing in rats; assay type: in vivo, Sprague-Dawley rat; conditions: 1 mg/kg i.v., female Sprague-Dawley rat
Protocol: One female Sprague-Dawley rat was administered a 1 mg/kg dose of the test Compound 5. Clinical observations were taken immediately following the administration of compound and at 0.5, 1, 2 and 4 hours post-dose.

SMILES | MIC E. coli 1527 (E. coli 1527) | MIC K. pneumoniae 933 (K. pneumoniae 933) | MIC P. aeruginosa 44 (P. aeruginosa 44 [1]) | MIC A. baumannii 1570 (A. baumannii 1570) | E. coli MIC50 (E. coli [2]) | E. coli MIC90 (E. coli [2]) | K. pneumoniae MIC50 (K. pneumoniae) | K. pneumoniae MIC90 (K. pneumoniae) | P. aeruginosa MIC50 (P. aeruginosa) | P. aeruginosa MIC90 (P. aeruginosa) | A. baumannii MIC50 (A. baumannii) | A. baumannii MIC90 (A. baumannii) | MIC P. aeruginosa #44, 0% surfactant (P. aeruginosa #44) | MIC P. aeruginosa #44, 10% surfactant (P. aeruginosa #44) | MIC P. aeruginosa #44, 40% surfactant (P. aeruginosa #44) | E. coli MIC50 (E. coli [3]) | E. coli MIC90 (E. coli [3]) | K. pneu MIC 50 (K. pneu) | K. pneu MIC 90 (K. pneu) | A. baum MIC 50 (A. baum) | other results
CC(C)C[C@@H]1NC(=O)[C@@H](Cc2ccccc2)NC(=O)[C@H](CCN)NC(=O)C(NC(=O)[C@H](CCN)NC(=O)[C@@H](NC(=O)[C@H](CCN)NC(=O)Nc2ccccc2Cl)C(C)O)CCNC(=O)[C@H](C(C)O)NC(=O)[C@H](CCN)NC(=O)C(CCN)NC1=O (stereo partly drawn) [Formula (II) comparator] ({NH(2-ClPh)-CO}-[Dab][Thr(3ξ)][Dab][ξDab][Dab][dF]L[ξDab][Dab][Thr(3ξ)]; lactam 4-C) | C | C | C | C | C | C | C | C | B | A | C | C | C | B | A | C | C | C | C | C | P. aeru MIC 50 (P. aeru; listed as 2): B and A; P. aeru MIC 90 (P. aeru; listed as 2): A and C; A. baum MIC 90 (A. baum): C; Lungs cleared within one log10 of limit of detection (P. aeruginosa 44 [4]): not seen; ED−3log10 (P. aeruginosa 44 [4]; historical data): approximately 12 mg/kg
CC[C@H](C)CCCCC(=O)N[C@@H](CCN)C(=O)N[C@H](C(=O)N[C@H](CCN)C(=O)N[C@H]1CCNC(=O)[C@H]([C@@H](C)O)NC(=O)[C@H](CCN)NC(=O)[C@H](CCN)NC(=O)[C@H]([C@@H](C)O)NC(=O)[C@@H](CC(C)C)NC(=O)[C@H](CCN)NC1=O)[C@@H](C)O [Native Polymyxin A, Polymyxin A] (X1-[Dab]T[dDab][Dab][Dab][dL]T[Dab][Dab]T; lactam 4-C) | B | A | C | C | B | A | C | C | A | C | A | A | C | B | B | B | A | C | C | A | P. aeru MIC 50 (P. aeru): A; P. aeru MIC 90 (P. aeru): C; A. baum MIC 90 (A. baum): A; Lungs cleared within one log10 of limit of detection (P. aeruginosa 44 [4]): not observed; ED−3log10 (P. aeruginosa 44 [4]; neutropenic mouse lung, P. aeruginosa 44, SC, BID×1 d, cfu 24 hours post-infection): 16.22 mg/kg; Acute (anaphylactoid) observations [5]: no clinical signs were observed

Reference: patent US8906866B2, “Antibiotic compositions for the treatment of gram negative infections” (priority 2010, dated 2014)
